These are literature values, as cited in US20050272714A1, “Use of targeted oxidative therapeutic formulation in treatment of diabetes and obesity” (priority 2004, published 2005).

The subject of one data set is E. coli. Particulars: increasing concentration ex-vivo in rabbit or human blood.
Data set [1] relates to peroxide-sensitive E. coli. To be noted: infused into the blood of infected rabbits.

For `OO` [hydrogen peroxide], the direct bactericidal activity entry in the data set on E. coli was “no evidence of direct bactericidal activity”. In addition, the bactericidal effect result in data set [1] was “no bactericidal effect”.
